ChEMBL document CHEMBL4393686, “InCl3 mediated heteroarylation of indoles and their derivatization via CH activation strategy: Discovery of 2-(1H-indol-3-yl)-quinoxaline derivatives as a new class of PDE4B selective inhibitors for arthritis and/or multiple sclerosis” (Eur J Med Chem, 2019)
Active and inactive are the calls of the source. The rule behind the calls is not given here.

What was measured:
[1] = molecular target: T1, 3',5'-cyclic-AMP phosphodiesterase 4B (Homo sapiens, UniProt Q07343); assay: Inhibition of recombinant His-tagged human PDE4B expressed in Sf9 cells using cAMP as substrate preincubated with enzyme for 15 mins followed by substrate addition and incubated for 1 hr by PDELight HTS cAMP phosphodiesterase Kit based luminometry
[2] = molecular target: T1, 3',5'-cyclic-AMP phosphodiesterase 4B; assay: Inhibition of human recombinant His-tagged PDE4B expressed in Sf9 cells using cAMP as substrate at 10 uM preincubated with enzyme for 15 mins followed by substrate addition and incubated for 1 hr by PDELight HTS cAMP phosphodiesterase Kit based luminometry relative to control
[3] = molecular target: 3',5'-cyclic-AMP phosphodiesterase 4D (Homo sapiens, UniProt Q08499); assay: Inhibition of PDE4D2 (unknown origin) using cAMP as substrate preincubated with enzyme for 15 mins followed by substrate addition and incubated for 1 hr by PDELight HTS cAMP phosphodiesterase Kit based luminometry
Homo sapiens [4] = species on record: Homo sapiens; assay: Selectivity index, ratio of IC50 for PDE4D2 (unknown origin) to IC50 for recombinant His-tagged human PDE4B expressed in sf9 cells using cAMP as substrate by PDELight HTS cAMP phosphodiesterase Kit based luminometry
Homo sapiens [5] = species on record: Homo sapiens; assay: Selectivity for recombinant His-tagged human PDE4B over PDE4C (unknown origin)
PDE4C = PDE4C (Homo sapiens, UniProt Q08493); assay: Inhibition of PDE4C (unknown origin) at 100 uM using cAMP as substrate preincubated with enzyme for 15 mins followed by substrate addition and incubated for 1 hr by PDELight HTS cAMP phosphodiesterase Kit based luminometry relative to control; details: probe cAMP
[6] = molecular target: cGMP-inhibited 3',5'-cyclic phosphodiesterase 3A (Homo sapiens) (UniProt Q14432); assay: Inhibition of recombinant PDE3A (unknown origin) using FAM-cAMP as substrate at 1xIC50 incubated for 60 mins by fluorescence plate reader analysis
cGMP-inhibited 3',5'-cyclic phosphodiesterase 3A (Homo sapiens), sequence (Q14432 whole entry): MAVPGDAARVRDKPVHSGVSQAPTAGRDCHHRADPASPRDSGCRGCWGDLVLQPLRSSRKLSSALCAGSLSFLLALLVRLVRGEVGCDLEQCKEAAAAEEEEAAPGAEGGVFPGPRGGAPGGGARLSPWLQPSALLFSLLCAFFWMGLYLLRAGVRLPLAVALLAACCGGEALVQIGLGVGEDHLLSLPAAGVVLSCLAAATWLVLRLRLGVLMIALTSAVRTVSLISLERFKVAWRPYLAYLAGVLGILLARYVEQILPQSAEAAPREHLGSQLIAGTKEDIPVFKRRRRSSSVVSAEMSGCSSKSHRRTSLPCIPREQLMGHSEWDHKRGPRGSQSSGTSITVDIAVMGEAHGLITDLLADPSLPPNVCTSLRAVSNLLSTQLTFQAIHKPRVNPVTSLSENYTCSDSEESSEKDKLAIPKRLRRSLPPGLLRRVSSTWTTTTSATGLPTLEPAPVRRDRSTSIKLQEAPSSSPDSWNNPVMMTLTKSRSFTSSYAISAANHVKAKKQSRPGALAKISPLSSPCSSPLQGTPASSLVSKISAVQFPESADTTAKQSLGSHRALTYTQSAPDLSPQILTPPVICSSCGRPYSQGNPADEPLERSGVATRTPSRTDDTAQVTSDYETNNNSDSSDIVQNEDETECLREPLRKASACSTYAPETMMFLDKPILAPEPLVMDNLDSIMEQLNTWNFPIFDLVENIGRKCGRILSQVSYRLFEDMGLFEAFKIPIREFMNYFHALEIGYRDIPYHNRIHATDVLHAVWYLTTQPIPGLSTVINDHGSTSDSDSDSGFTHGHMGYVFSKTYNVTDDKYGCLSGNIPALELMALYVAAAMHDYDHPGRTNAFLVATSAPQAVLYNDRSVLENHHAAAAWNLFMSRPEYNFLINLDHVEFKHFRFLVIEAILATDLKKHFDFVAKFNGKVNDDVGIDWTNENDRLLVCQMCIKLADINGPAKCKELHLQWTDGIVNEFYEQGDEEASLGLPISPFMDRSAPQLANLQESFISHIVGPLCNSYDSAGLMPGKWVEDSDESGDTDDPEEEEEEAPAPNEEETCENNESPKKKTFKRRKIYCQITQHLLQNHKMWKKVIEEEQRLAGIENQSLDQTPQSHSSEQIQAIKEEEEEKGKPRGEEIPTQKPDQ

[7] = molecular target: cGMP-inhibited 3',5'-cyclic phosphodiesterase 3B (Homo sapiens) (UniProt Q13370); assay: Inhibition of recombinant N-terminal GST-tagged human PDE3B (592-end aa) expressed in Sf9 cells using FAM-cAMP as substrate at 1xIC50 incubated for 60 mins by fluorescence plate reader analysis
cGMP-inhibited 3',5'-cyclic phosphodiesterase 3B (Homo sapiens), sequence (Q13370 whole entry, looked up): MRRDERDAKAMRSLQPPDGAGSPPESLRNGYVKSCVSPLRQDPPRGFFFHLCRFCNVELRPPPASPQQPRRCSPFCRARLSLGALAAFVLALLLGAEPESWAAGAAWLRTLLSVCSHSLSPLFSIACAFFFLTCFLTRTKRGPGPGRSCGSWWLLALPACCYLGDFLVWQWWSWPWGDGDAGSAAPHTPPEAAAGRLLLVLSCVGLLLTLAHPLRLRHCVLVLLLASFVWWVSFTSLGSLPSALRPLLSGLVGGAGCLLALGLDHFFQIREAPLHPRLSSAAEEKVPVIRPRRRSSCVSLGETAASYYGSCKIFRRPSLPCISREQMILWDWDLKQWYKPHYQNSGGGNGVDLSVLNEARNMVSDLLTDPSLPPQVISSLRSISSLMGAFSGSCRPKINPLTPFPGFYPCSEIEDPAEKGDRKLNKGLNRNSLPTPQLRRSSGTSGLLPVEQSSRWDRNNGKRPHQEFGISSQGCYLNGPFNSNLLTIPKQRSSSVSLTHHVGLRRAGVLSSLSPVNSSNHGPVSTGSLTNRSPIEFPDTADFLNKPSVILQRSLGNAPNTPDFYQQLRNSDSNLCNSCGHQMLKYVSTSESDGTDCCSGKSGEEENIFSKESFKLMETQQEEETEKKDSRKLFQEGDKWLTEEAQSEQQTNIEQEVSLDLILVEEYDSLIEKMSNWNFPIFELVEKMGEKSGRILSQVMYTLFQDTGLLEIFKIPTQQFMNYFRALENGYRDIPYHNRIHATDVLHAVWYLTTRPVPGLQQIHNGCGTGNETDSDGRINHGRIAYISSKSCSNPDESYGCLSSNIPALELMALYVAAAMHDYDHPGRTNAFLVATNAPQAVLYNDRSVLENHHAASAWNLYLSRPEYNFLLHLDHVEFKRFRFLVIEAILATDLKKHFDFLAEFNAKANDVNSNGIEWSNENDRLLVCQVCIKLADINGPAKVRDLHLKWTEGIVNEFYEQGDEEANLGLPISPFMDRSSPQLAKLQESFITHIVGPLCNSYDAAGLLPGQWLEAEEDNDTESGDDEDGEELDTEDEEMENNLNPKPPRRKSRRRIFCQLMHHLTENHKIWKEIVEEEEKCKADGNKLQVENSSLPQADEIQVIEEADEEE

[8] = molecular target: cGMP-inhibited 3',5'-cyclic phosphodiesterase 3A (Homo sapiens) (UniProt Q14432); assay: Inhibition of recombinant PDE3A (unknown origin) using FAM-cAMP as substrate at 0.1xIC50 incubated for 60 mins by fluorescence plate reader analysis
[9] = molecular target: cGMP-inhibited 3',5'-cyclic phosphodiesterase 3A (Homo sapiens) (UniProt Q14432); assay: Inhibition of recombinant PDE3A (unknown origin) using FAM-cAMP as substrate at 10xIC50 incubated for 60 mins by fluorescence plate reader analysis
[10] = molecular target: cGMP-inhibited 3',5'-cyclic phosphodiesterase 3B (Homo sapiens) (UniProt Q13370); assay: Inhibition of recombinant N-terminal GST-tagged human PDE3B (592-end aa) expressed in Sf9 cells using FAM-cAMP as substrate at 10xIC50 incubated for 60 mins by fluorescence plate reader analysis
[11] = molecular target: cGMP-inhibited 3',5'-cyclic phosphodiesterase 3B (Homo sapiens) (UniProt Q13370); assay: Inhibition of recombinant N-terminal GST-tagged human PDE3B (592-end aa) expressed in Sf9 cells using FAM-cAMP as substrate at 0.1xIC50 incubated for 60 mins by fluorescence plate reader analysis
[12] = molecular target: High affinity 3',5'-cyclic-AMP phosphodiesterase 7A (Homo sapiens) (UniProt Q13946); assay: Inhibition of recombinant N-terminal GST tagged human PDE7A1 (122-end aa) expressed in Sf9 cells using FAM-cAMP as substrate at 10xIC50 incubated for 60 mins by fluorescence plate reader analysis
High affinity 3',5'-cyclic-AMP phosphodiesterase 7A (Homo sapiens), sequence (Q13946 whole entry): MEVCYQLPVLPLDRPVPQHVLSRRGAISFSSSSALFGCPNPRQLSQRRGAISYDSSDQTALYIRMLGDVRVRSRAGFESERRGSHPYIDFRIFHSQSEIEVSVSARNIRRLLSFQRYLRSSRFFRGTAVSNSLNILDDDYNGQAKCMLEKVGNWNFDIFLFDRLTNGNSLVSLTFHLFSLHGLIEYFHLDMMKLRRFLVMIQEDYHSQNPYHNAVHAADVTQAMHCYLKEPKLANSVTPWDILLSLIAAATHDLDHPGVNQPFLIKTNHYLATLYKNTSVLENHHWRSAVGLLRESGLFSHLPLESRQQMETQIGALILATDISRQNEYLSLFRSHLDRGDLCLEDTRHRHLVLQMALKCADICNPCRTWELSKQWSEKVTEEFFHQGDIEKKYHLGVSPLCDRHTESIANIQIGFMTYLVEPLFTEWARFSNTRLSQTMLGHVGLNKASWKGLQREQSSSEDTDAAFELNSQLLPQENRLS

[13] = molecular target: High affinity 3',5'-cyclic-AMP phosphodiesterase 7A (Homo sapiens) (UniProt Q13946); assay: Inhibition of recombinant N-terminal GST tagged human PDE7A1 (122-end aa) expressed in Sf9 cells using FAM-cAMP as substrate at 1xIC50 incubated for 60 mins by fluorescence plate reader analysis
[14] = molecular target: High affinity 3',5'-cyclic-AMP phosphodiesterase 7A (Homo sapiens) (UniProt Q13946); assay: Inhibition of recombinant N-terminal GST tagged human PDE7A1 (122-end aa) expressed in Sf9 cells using FAM-cAMP as substrate at 0.1xIC50 incubated for 60 mins by fluorescence plate reader analysis
Rattus norvegicus = assay: Antiarthritic activity in complete Freund's adjuvant-induced Wistar rat arthritis model assessed as reduction in paw volume at 2 mg/kg, ip administered from 11th day to 20th day by vernier caliper analysis; type: functional, organism-based
[15] = molecular target: Dual specificity calcium/calmodulin-dependent 3',5'-cyclic nucleotide phosphodiesterase 1B (Homo sapiens) (UniProt Q01064); assay: Inhibition of recombinant N-terminal GST tagged full length human PDE1B expressed in Sf9 cells using FAM-cAMP as substrate at 10xIC50 incubated for 60 mins by fluorescence plate reader analysis
Dual specificity calcium/calmodulin-dependent 3',5'-cyclic nucleotide phosphodiesterase 1B (Homo sapiens), sequence (Q01064 whole entry): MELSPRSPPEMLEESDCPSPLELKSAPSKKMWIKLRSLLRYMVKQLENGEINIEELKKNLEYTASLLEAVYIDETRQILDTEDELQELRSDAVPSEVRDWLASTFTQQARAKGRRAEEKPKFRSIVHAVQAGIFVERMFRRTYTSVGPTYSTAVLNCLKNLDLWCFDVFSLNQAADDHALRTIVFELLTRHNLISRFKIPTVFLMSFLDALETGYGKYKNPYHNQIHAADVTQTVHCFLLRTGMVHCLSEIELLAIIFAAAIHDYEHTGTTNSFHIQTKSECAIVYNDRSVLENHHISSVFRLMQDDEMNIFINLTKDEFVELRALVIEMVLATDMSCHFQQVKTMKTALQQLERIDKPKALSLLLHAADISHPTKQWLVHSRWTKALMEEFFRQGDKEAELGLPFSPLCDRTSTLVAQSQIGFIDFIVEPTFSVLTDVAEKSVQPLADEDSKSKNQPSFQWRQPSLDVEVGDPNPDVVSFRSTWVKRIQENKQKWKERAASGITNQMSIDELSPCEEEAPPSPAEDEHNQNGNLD

[16] = molecular target: Dual specificity calcium/calmodulin-dependent 3',5'-cyclic nucleotide phosphodiesterase 1A (Homo sapiens) (UniProt P54750); assay: Inhibition of recombinant N-terminal GST-tagged full-length human PDE1A1 expressed in Sf9 cells using FAM-cAMP as substrate at 1xIC50 incubated for 60 mins by fluorescence plate reader analysis
Dual specificity calcium/calmodulin-dependent 3',5'-cyclic nucleotide phosphodiesterase 1A (Homo sapiens), sequence (P54750 whole entry, the tested form may be a part): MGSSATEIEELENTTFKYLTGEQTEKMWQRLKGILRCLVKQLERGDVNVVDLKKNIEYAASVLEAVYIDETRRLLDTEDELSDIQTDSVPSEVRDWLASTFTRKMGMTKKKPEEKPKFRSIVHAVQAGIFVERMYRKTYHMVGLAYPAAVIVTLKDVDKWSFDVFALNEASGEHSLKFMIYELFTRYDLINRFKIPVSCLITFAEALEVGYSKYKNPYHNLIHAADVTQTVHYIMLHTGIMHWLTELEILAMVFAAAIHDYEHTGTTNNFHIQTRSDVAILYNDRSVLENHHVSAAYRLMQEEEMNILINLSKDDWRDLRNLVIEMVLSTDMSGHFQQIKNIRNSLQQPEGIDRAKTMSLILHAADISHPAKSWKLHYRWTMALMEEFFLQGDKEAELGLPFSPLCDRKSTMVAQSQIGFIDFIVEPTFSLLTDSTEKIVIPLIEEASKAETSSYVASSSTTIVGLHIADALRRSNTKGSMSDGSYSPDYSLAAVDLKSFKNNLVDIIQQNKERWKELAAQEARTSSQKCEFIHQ

[17] = molecular target: Dual specificity calcium/calmodulin-dependent 3',5'-cyclic nucleotide phosphodiesterase 1C (Homo sapiens) (UniProt Q14123); assay: Inhibition of recombinant N-terminal GST tagged human PDE1C (2 to 634 aa) expressed in Sf9 cells at 0.1xIC50 using FAM-cAMP as substrate incubated for 60 mins by fluorescence plate reader analysis
Dual specificity calcium/calmodulin-dependent 3',5'-cyclic nucleotide phosphodiesterase 1C (Homo sapiens), sequence (Q14123 whole entry, the tested form may be a part): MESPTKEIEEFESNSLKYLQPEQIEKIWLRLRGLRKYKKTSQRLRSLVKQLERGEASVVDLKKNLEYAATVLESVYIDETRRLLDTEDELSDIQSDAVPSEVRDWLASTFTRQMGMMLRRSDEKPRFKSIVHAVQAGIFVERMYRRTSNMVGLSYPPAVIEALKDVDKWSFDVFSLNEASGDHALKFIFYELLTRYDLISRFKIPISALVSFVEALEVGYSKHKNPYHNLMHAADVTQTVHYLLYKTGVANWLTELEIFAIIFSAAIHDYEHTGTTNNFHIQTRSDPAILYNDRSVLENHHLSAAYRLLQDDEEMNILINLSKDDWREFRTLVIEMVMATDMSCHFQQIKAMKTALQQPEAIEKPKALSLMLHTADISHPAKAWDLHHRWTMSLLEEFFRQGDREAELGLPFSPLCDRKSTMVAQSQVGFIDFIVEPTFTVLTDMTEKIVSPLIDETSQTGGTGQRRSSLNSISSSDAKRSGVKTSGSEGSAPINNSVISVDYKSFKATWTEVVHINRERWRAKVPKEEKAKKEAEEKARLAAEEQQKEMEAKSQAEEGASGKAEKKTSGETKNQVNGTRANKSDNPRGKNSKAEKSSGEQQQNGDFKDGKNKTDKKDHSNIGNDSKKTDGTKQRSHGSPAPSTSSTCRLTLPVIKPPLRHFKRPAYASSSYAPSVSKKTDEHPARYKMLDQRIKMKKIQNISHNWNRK

[18] = molecular target: Dual specificity calcium/calmodulin-dependent 3',5'-cyclic nucleotide phosphodiesterase 1C (Homo sapiens) (UniProt Q14123); assay: Inhibition of recombinant N-terminal GST tagged human PDE1C (2 to 634 aa) expressed in Sf9 cells at 1xIC50 using FAM-cAMP as substrate incubated for 60 mins by fluorescence plate reader analysis
[19] = molecular target: Dual specificity calcium/calmodulin-dependent 3',5'-cyclic nucleotide phosphodiesterase 1A (Homo sapiens) (UniProt P54750); assay: Inhibition of recombinant N-terminal GST-tagged full-length human PDE1A1 expressed in Sf9 cells using FAM-cAMP as substrate at 10xIC50 incubated for 60 mins by fluorescence plate reader analysis
[20] = molecular target: Dual specificity calcium/calmodulin-dependent 3',5'-cyclic nucleotide phosphodiesterase 1C (Homo sapiens) (UniProt Q14123); assay: Inhibition of recombinant N-terminal GST tagged human PDE1C (2 to 634 aa) expressed in Sf9 cells at 10xIC50 using FAM-cAMP as substrate incubated for 60 mins by fluorescence plate reader analysis
[21] = molecular target: Dual specificity calcium/calmodulin-dependent 3',5'-cyclic nucleotide phosphodiesterase 1B (Homo sapiens) (UniProt Q01064); assay: Inhibition of recombinant N-terminal GST tagged full length human PDE1B expressed in Sf9 cells using FAM-cAMP as substrate at 1xIC50 incubated for 60 mins by fluorescence plate reader analysis
[22] = molecular target: Dual specificity calcium/calmodulin-dependent 3',5'-cyclic nucleotide phosphodiesterase 1A (Homo sapiens) (UniProt P54750); assay: Inhibition of recombinant N-terminal GST-tagged full-length human PDE1A1 expressed in Sf9 cells using FAM-cAMP as substrate at 0.1xIC50 incubated for 60 mins by fluorescence plate reader analysis
[23] = molecular target: Dual specificity calcium/calmodulin-dependent 3',5'-cyclic nucleotide phosphodiesterase 1B (Homo sapiens) (UniProt Q01064); assay: Inhibition of recombinant N-terminal GST tagged full length human PDE1B expressed in Sf9 cells using FAM-cAMP as substrate at 0.1xIC50 incubated for 60 mins by fluorescence plate reader analysis

Question: Which results are given for C=CCn1cc(-c2ncccc2C#N)c2cc(OC)ccc21?
Answer: IC50 [1]: 1.98 µM; inhibition [2]: > 75%

Question: How did the IC50 [3] turn out when CCOC(=O)Cn1cc(-c2nc3ccccc3nc2Cl)c2cc(OC)ccc21 was run?
Answer: Its IC50 is 15.2 µM.

Question: And the IC50 [1]?
Answer: Its IC50 is 0.21 µM.

Question: What about the Ratio IC50 (Homo sapiens [4]) of the same molecule?
Answer: Its Ratio IC50 is 72.

Question: And the Selectivity ratio (Homo sapiens [5])?
Answer: Its Selectivity ratio is > 250.

Question: And the inhibition at 1 h, 100 µM (PDE4C)?
Answer: Its inhibition at 1 h, 100 µM is 20 to 30%.

Question: What about the inhibition [2] of the same molecule?
Answer: Its inhibition is > 75%.

Question: How did the IC50 [1] turn out when COC(=O)/C=C/c1c(-c2nc3ccccc3nc2Cl)c2cc(OC)ccc2n1C(C)C was run?
Answer: The IC50 was 5.97 µM.

Question: What about the inhibition [2] of the same molecule?
Answer: Its inhibition is > 75%.

Question: Which inhibition [6] does the source give for CN(C(=O)CCCOc1ccc2[nH]c(=O)ccc2c1)C1CCCCC1 here?
Answer: The inhibition was 39%.

Question: And the inhibition [7]?
Answer: Its inhibition is 61%.

Question: What about the inhibition [8] of the same molecule?
Answer: The inhibition was 9%.

Question: What about the inhibition [9] of the same molecule?
Answer: Its inhibition is 85%.

Question: What about the inhibition [10] of the same molecule?
Answer: Its inhibition is 94%.

Question: And the inhibition [11]?
Answer: Its inhibition is 17%.

Question: What does the source list for Cc1ccc([N+](=O)[O-])cc1S(=O)(=O)N(C)C?
Answer: inhibition [12]: 88%; inhibition [13]: 49%; inhibition [14]: 10%

Question: CN(Cc1cnc2nc(N)nc(N)c2n1)c1ccc(C(=O)N[C@@H](CCC(=O)O)C(=O)O)cc1 was tested. Which inhibition (Rattus norvegicus) did it give?
Answer: Its inhibition is “Active”.

Question: For COc1ccc(Cc2nc(O)c3c(C)nc([C@@H](CCCc4ccccc4)[C@@H](C)O)n3n2)cc1OC, which inhibition [15] is on record?
Answer: The inhibition was 86%.

Question: What about the inhibition [16] of the same molecule?
Answer: The inhibition was 52%.

Question: What about the inhibition [17] of the same molecule?
Answer: Its inhibition is 18%.

Question: And the inhibition [18]?
Answer: Its inhibition is 52%.

Question: And the inhibition [19]?
Answer: The inhibition was 87%.

Question: And the inhibition [20]?
Answer: Its inhibition is 86%.

Question: And the inhibition [21]?
Answer: Its inhibition is 55%.

Question: And the inhibition [22]?
Answer: The inhibition was 7%.

Question: What about the inhibition [23] of the same molecule?
Answer: Its inhibition is 16%.

Question: What does the source list for COc1ccc2c(c1)c(-c1nc3ccccc3nc1Cl)cn2C(C)C?
Answer: IC50 [3]: 5.02 µM; IC50 [1]: 0.44 µM; Ratio IC50 (Homo sapiens [4]): 11.4; inhibition [2]: > 75%

Question: What does the source list for COC(=O)/C=C/c1[nH]c2ccccc2c1-c1nc2ccccc2nc1Cl?
Answer: IC50 [1]: 3.88 µM; inhibition [2]: > 75%
